# Measurements from patent US5077037A, “Novel compositions for magnetic resonance imaging” (Mallinckrodt Medical, Inc., priority 1990, dated 1991).
# How the values were obtained:
# [1] = relaxivity rates (Bruker NMR MiniSpec, 20 MHz, 40° C.); assay type: physicochemical
# mouse = mouse i.v. LD50 (acute toxicity); assay type: in vivo; conditions: 0.5M solution, confidence limit of 14.3-18.4 mmol/kg
# [2] = sterile water for injection (SWFI)
smiles,measurement,setting,value
O=C([O-])CN(CCN(CC(=O)[O-])CC(=O)NCC1CCCO1)CCN(CC(=O)[O-])CC(=O)NCC1CCCO1.[Gd+3] (centres unmarked) [Example 2],relaxivity rate T1,[1]; 4% human serum albumin (HSA),4.8 mmol⁻¹ s⁻¹
same,relaxivity rate T2,[1]; 4% human serum albumin (HSA),4.8 mmol⁻¹ s⁻¹
same,relaxivity rate T1,[1]; [2],4.4 mmol⁻¹ s⁻¹
same,relaxivity rate T2,[1]; [2],5.6 mmol⁻¹ s⁻¹
same,LD50 value,mouse,16.2 mmol/kg
